Assay results published in publication PMC11676667, “Pharmacokinetics of Oral Cannabinoid Δ8-Tetrahydrocannabivarin and Its Main Metabolites in Healthy Participants” (Pharmaceuticals, 2024).
Like-named read-outs stand apart in the source and are kept apart here.

Assay: Plasma pharmacokinetics after single oral dose of Δ8-THCV in MCT oil (LC-MS/MS, non-compartmental analysis)
Type: in vivo, human
Conditions: for concentration at 0.5 h / concentration at 1 h / concentration at 2 h / concentration at 4 h / concentration at 6 h / concentration at 8 h / AUC(0-t) / Cmax / MRT / Tmax: human; for concentration at 0.5 h / concentration at 1 h / concentration at 2 h / concentration at 4 h / concentration at 6 h / concentration at 8 h: oral; for AUC(0-t) / Cmax / MRT / Tmax: po; for MRT: read-out: MRT (mean residence time)
Description: The study was a two-phase, dose-ranging, placebo-controlled trial in 21 healthy participants to assess the safety, tolerability, PK, and PD of an oral formulation of Δ8-THCV. A detailed description of the study was published elsewhere. The study product was a medium-chain triglyceride (MCT) oil oral formulation of Δ8-THCV at a concentration of 50 mg/mL. […] MCT oil was used as placebo.
Twenty-one participants were enrolled in the clinical study and plasma samples from 15 participants were sent to our laboratory for pharmacokinetic evaluation. Of these, 3 participants were enrolled in Phase 1, an unblinded, placebo-controlled, single ascending dose design and 12 were enrolled in Phase 2, a double-blind, randomized, placebo-controlled, within-participant crossover design. At each study session, participants received one of the following oral doses: placebo, 12.5 mg, 25 mg, 50 mg, 100 mg, and 200 mg of the aforementioned Δ8-THCV formulation in MCT. Study visits were separated by a washout period of a minimum of one week and maximum of 28 days. Participants entered the research facility the night before the session and received the study product in the morning after a standardized high-fat, high-calorie breakfast. PK blood samples included in this analysis were collected prior to dosing and 0.5, 1, 2, 4, 6, and 8 h after dose. Immediately following collection into K2EDTA tubes, blood samples were placed on wet ice, centrifuged, and plasma was immediately frozen at −80 °C until shipment to the bioanalytical laboratory (iC42 Clinical Research and Development, University of Colorado, Aurora, CO, USA) on dry ice.
Plasma samples were analyzed using a validated high-performance liquid chromatography–tandem mass spectrometry (LC-MS/MS) assay. The assay included Δ8-THCV and its main metabolites 11-OH-Δ8-THCV and Δ8-THCV-COOH, Δ9-THCV and its main metabolite Δ9-THCV-COOH, and Δ9-THC and Δ8-THC as well as their main metabolites (Figure 3). The complete list of analyzed compounds and a summary of the key performance parameters of the assay are presented in Appendix A and Table A1 and Table A2. […] For the PK analysis, concentrations below the lower limit of quantification were set to 0 ng/mL. PK parameters were calculated using non-compartmental analysis (Phoenix WinNonlin version 8.4., Certara, Princeton, NJ, USA). Statistical analysis was carried out using GraphPad Prism (version 10, Boston, MA, USA).

[1] = plasma, 100 mg, 100 mg Δ8-THCV dose, Median (IQ Range)
[2] = plasma, 100 mg, 100 mg Δ8-THCV dose, Mean (SD, %CV)
[3] = plasma, 200 mg, 200 mg Δ8-THCV dose, Mean (SD, %CV)
[4] = plasma, 200 mg, 200 mg Δ8-THCV dose, Median (IQ Range)
[5] = plasma, 12.5 mg, 12.5 mg single oral Δ8-THCV in MCT oil, Mean (±SD)
[6] = plasma, 12.5 mg, 12.5 mg single oral Δ8-THCV in MCT oil, Median (Range)
[7] = plasma, 25 mg, 25 mg single oral Δ8-THCV in MCT oil, Mean (±SD)
[8] = plasma, 25 mg, 25 mg single oral Δ8-THCV in MCT oil, Median (Range)
[9] = plasma, 50 mg, 50 mg single oral Δ8-THCV in MCT oil, Mean (±SD)
[10] = plasma, 50 mg, 50 mg single oral Δ8-THCV in MCT oil, Median (Range)
[11] = plasma, 100 mg, 100 mg single oral Δ8-THCV in MCT oil, Mean (±SD)
[12] = plasma, 100 mg, 100 mg single oral Δ8-THCV in MCT oil, Median (Range)
[13] = plasma, 200 mg, 200 mg single oral Δ8-THCV in MCT oil, Mean (±SD)
[14] = plasma, 200 mg, 200 mg single oral Δ8-THCV in MCT oil, Median (Range)

## CCCc1cc(O)c2c(c1)OC(C)(C)[C@@H]1CC=C(C(=O)O)C[C@@H]21 [Δ8-THCV-COOH, 11-nor-9-carboxy-Δ8-THCV]
[1]
  concentration at 0.5 h: 1.7 ng/mL
  concentration at 1 h: 79.5 ng/mL
  concentration at 2 h: 275 ng/mL
  concentration at 4 h: 547 ng/mL
  concentration at 6 h: 497 ng/mL
  concentration at 8 h: 304 ng/mL
[2]
  concentration at 1 h: 202 ng/mL
  concentration at 2 h: 306 ng/mL
  concentration at 4 h: 556 ng/mL
  concentration at 6 h: 512 ng/mL
  concentration at 8 h: 319 ng/mL
[3]
  concentration at 0.5 h: 5.6 ng/mL
  concentration at 1 h: 158 ng/mL
  concentration at 2 h: 653 ng/mL
  concentration at 4 h: 1300 ng/mL
  concentration at 6 h: 1170 ng/mL
  concentration at 8 h: 917 ng/mL
[4]
  concentration at 0.5 h: 0 ng/mL
  concentration at 1 h: 108 ng/mL
  concentration at 2 h: 319 ng/mL
  concentration at 4 h: 1110 ng/mL
  concentration at 6 h: 1020 ng/mL
  concentration at 8 h: 855 ng/mL
[5]
  AUC(0-t): 398 ng·h/mL
  Cmax: 99 ng/mL
[6]
  AUC(0-t): 331 ng·h/mL
  Cmax: 101 ng/mL
plasma, 12.5 mg, 12.5 mg single oral Δ8-THCV in MCT oil, plasma, Mean (±SD)
  MRT: 4.9 h
plasma, 12.5 mg, 12.5 mg single oral Δ8-THCV in MCT oil, plasma, Mean (±SD), read-out: tmax
  Tmax: 4.9 h
plasma, 12.5 mg, 12.5 mg single oral Δ8-THCV in MCT oil, plasma, Median (Range)
  MRT: 4.9 h
plasma, 12.5 mg, 12.5 mg single oral Δ8-THCV in MCT oil, plasma, Median (Range), read-out: tmax
  Tmax: 4 h
[7]
  AUC(0-t): 642 ng·h/mL
  Cmax: 151 ng/mL
[8]
  AUC(0-t): 574 ng·h/mL
  Cmax: 116 ng/mL
plasma, 25 mg, 25 mg single oral Δ8-THCV in MCT oil, plasma, Mean (±SD)
  MRT: 4.8 h
plasma, 25 mg, 25 mg single oral Δ8-THCV in MCT oil, plasma, Mean (±SD), read-out: tmax
  Tmax: 4.6 h
plasma, 25 mg, 25 mg single oral Δ8-THCV in MCT oil, plasma, Median (Range)
  MRT: 4.6 h
plasma, 25 mg, 25 mg single oral Δ8-THCV in MCT oil, plasma, Median (Range), read-out: tmax
  Tmax: 4 h
[9]
  AUC(0-t): 1210 ng·h/mL
  Cmax: 324 ng/mL
[10]
  AUC(0-t): 1090 ng·h/mL
  Cmax: 275 ng/mL
plasma, 50 mg, 50 mg single oral Δ8-THCV in MCT oil, plasma, Mean (±SD)
  MRT: 5.3 h
plasma, 50 mg, 50 mg single oral Δ8-THCV in MCT oil, plasma, Mean (±SD), read-out: tmax
  Tmax: 5.3 h
plasma, 50 mg, 50 mg single oral Δ8-THCV in MCT oil, plasma, Median (Range)
  MRT: 5.3 h
plasma, 50 mg, 50 mg single oral Δ8-THCV in MCT oil, plasma, Median (Range), read-out: tmax
  Tmax: 6 h
[11]
  AUC(0-t): 3070 ng·h/mL
  Cmax: 756 ng/mL
[12]
  AUC(0-t): 3130 ng·h/mL
  Cmax: 699 ng/mL
plasma, 100 mg, 100 mg single oral Δ8-THCV in MCT oil, plasma, Mean (±SD)
  MRT: 4.8 h
plasma, 100 mg, 100 mg single oral Δ8-THCV in MCT oil, plasma, Mean (±SD), read-out: tmax
  Tmax: 4.7 h
plasma, 100 mg, 100 mg single oral Δ8-THCV in MCT oil, plasma, Median (Range)
  MRT: 4.6 h
plasma, 100 mg, 100 mg single oral Δ8-THCV in MCT oil, plasma, Median (Range), read-out: tmax
  Tmax: 4 h
[13]
  AUC(0-t): 6960 ng·h/mL
  Cmax: 1740 ng/mL
[14]
  AUC(0-t): 6000 ng·h/mL
  Cmax: 1900 ng/mL
plasma, 200 mg, 200 mg single oral Δ8-THCV in MCT oil, plasma, Mean (±SD)
  MRT: 5.1 h
plasma, 200 mg, 200 mg single oral Δ8-THCV in MCT oil, plasma, Mean (±SD), read-out: tmax
  Tmax: 5.3 h
plasma, 200 mg, 200 mg single oral Δ8-THCV in MCT oil, plasma, Median (Range)
  MRT: 5.1 h
plasma, 200 mg, 200 mg single oral Δ8-THCV in MCT oil, plasma, Median (Range), read-out: tmax
  Tmax: 6 h
plasma, across oral Δ8-THCV doses 12.5-200 mg, plasma, read-out: median time-to-maximum concentration (tmax), range across doses
  Tmax: 4.6 to 5.3 h
Of 504 plasma samples from 15 participants after oral Δ8-THCV
  number of positive plasma samples: 381
One subject after oral Δ8-THCV in MCT oil, Figure A1
  concentration in representative plasma sample: 1026 ng/mL
Oral Δ8-THCV
  median systemic exposure (plasma AUClast) relative to parent compound: 36 fold
  plasma concentration relative to Δ8-THCV, on average at each timepoint: 10 fold
Oral Δ8-THCV 12.5-200 mg, plasma
  increase of median AUClast every two-fold increase in the dose: 1.7- to 2.9 fold
